Data: US20130116206A1, “QUINOLINE DERIVATIVES USED AS PET IMAGING AGENTS” (IMPERIAL INNOVATIONS LIMITED, priority 2009, published 2013)
Structures can show the parent of a compound that is named as a salt. Where two headings read alike, the source gives them in different places.

Legend:
[1] = target: T1, EGFR kinase (Homo sapiens, UniProt P00533); assay: EGFR tyrosine kinase enzyme inhibition assay (cell free, DELFIA time resolved fluorescence); assay type: biochemical; conditions: for EGFR kinase activity IC50, range in words / IC50: cell free kinase assay
T1 construct: purchased Sigma E-3641
Procedure: Assessment of the EGFR tyrosine kinase activity of control quinoline 1 together with quinolines 10, 13, 14, 17, 18, 24 and 25 was carried out using a cell free kinase activity inhibition assay as detailed below. BPDQ (4-N-(3-bromophenyl)quinazoline-4,6,7-triamine), a quinazoline based EGFR inhibitor was also included in this assay as a further reference standard.
The inhibitory activity of quinolines 1, 10, 13, 14, 17, 18, 24 and 25 against EGFR kinase activity was measured by a time resolved fluorescence assay (DELFIA, Perkin-Elmer Life Sciences, Boston, Mass., USA). […] The reaction proceeded at rt for 1 h and was stopped by addition of 100 mM EDTA. The enzyme reaction solution was diluted and aliquots added to 96-well ELISA streptavidin plates with shaking for 1 h. The plates were washed and phosphorylated Tyrosine was detected with Eu-labeled antiphosphotyrosine antibody (50 ng/well; PT66; PerkinElmer). After washing and enhancement steps, the plates were assessed in a Victor^3 multi-label counter (PerkinElmer) using the EGFR Europium protocol.

[2] = target: T2, EGFR autophosphorylation in A431 cells (Homo sapiens, UniProt P00533); assay: Inhibition of EGFR autophosphorylation in A431 cells (Western blot p-EGFR/total EGFR); assay type: cell-based; conditions: for IC50: 3 h drug incubation then washing with drug free medium, mean ± sem, n = 3
T2 construct: highly EGFR-expressing A431 cells; endogenous in cells; host or cells: A431 human epidermoid cancer cells (ATCC)
Procedure: The ability of the compounds to be transported across cell membranes and to inhibit EGFR autophosphorylation was examined in highly EGFR-expressing A431 cells.
The cells were maintained in DMEM (Sigma-Aldrich Company Ltd, Dorset, UK) supplemented with 10% fetal bovine serum (Lonza, UK), and 2 mM L-glutamine, 100 U/ml penicillin, 100 μg/mL streptomycin and 1 μg/mL fungizone (GIBCO) in 6 well plates incubated at 37° C. in a humidified incubator with 5% CO2. The experiments were designed to assess irreversibility of EGFR inhibition by the compounds. Cells in exponential growth were incubated with quinolines 1, 10, 13, 14, 17, 18, 24 and 25 at various concentrations for 3 h. EGF (100 ng/ml) was added to the cells during the last 15 min to induce p-EGFR. The medium was removed and replaced with fresh compound-free medium for 1 h. The last step was then repeated twice. The cells were then washed with cold PBS and lysed in RIPA buffer (Invitrogen Ltd, Paisley, UK) supplemented with protease and phosphatase inhibitor cocktails (Sigma-Aldrich Company Ltd, Dorset, UK). Lysates were clarified by centrifugation. The following antibodies were used: rabbit polyclonal antibody anti-p-EGFR (Cell signalling Technology, Denver, Mass.; 1:1000) and rabbit polyclonal antibody anti-EGFR (Santa Cruz Biotechnology, Santa Cruz, Calif.; 1:1000) and mouse monoclonal antibody anti-β-actin (Abcam, UK; 1:10000) as primary antibodies. The secondary antibodies were Goat anti Rabbit IgG HRP (Santa Cruz Biotechnology Santa Cruz, Calif.; 1:2000) and Goat anti Mouse IgG HRP (Autogen Bioclear, UK; 1:2000). The same procedure was used to assess EGFR and phospho-EGFR expression in HCT116 human colon carcinoma cells.

[3] = 25 μM ATP, read-out: IC50 (nM) EGFR kinase activity

T2 sequence (P00533 25-1210): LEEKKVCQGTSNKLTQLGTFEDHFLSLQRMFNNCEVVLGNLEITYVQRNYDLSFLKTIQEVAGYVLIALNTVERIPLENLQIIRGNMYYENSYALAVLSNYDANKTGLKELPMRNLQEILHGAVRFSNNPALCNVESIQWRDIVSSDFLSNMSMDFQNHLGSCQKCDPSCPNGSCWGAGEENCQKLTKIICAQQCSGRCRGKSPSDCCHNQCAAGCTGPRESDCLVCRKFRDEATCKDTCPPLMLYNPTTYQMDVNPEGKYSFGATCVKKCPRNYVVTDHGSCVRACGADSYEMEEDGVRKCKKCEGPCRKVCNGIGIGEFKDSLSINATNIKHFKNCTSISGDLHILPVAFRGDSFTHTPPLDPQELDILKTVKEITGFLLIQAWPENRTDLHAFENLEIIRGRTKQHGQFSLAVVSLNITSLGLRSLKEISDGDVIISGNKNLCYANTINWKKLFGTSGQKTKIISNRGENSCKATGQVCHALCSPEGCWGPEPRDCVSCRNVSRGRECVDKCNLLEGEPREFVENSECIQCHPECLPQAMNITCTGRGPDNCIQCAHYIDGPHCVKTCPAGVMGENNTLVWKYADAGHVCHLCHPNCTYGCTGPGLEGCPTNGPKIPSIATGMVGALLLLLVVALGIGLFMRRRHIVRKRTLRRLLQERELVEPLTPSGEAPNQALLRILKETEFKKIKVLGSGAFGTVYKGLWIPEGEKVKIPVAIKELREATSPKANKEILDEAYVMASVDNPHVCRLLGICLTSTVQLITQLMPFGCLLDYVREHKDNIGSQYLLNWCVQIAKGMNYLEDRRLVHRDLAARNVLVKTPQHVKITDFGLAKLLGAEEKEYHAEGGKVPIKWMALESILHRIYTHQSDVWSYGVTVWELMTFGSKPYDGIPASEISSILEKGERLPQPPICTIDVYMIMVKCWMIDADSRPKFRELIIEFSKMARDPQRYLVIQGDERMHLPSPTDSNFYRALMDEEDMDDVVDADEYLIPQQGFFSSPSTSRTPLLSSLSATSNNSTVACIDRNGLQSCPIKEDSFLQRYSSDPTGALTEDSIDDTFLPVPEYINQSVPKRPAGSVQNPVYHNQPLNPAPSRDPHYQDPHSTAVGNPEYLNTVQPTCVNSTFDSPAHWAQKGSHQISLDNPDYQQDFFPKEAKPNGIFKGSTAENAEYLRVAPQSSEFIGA
T1 sequence (P00533 25-1210): as above

## CCOc1cc2ncc(C#N)c(Nc3ccc(F)c(Cl)c3)c2cc1NC(=O)/C=C/CN(C)Cc1ccc(F)cc1 [compound 14, (E)-4-[(4-Fluorobenzyl)methylamino]-but-2-enoic acid [4-(3-chloro-4-fluorophenylamino)-3-cyano-7-ethoxyquinoline-6-yl]amide]
[1]
  EGFR kinase activity IC50, range in words: sub-nanomolar
[1]; [3]
  IC50: 0.57 ± 0.12 nM
[2]
  Cellular EGFR autophosphorylation inhibition, IC50 in words: low nanomolar range
  IC50: 16.5 ± 8.38 nM

## Nc1cc2ncnc(Nc3cccc(Br)c3)c2cc1N [BPDQ, 4-N-(3-bromophenyl)quinazoline-4,6,7-triamine, reference compound]
[1]; [3]
  IC50: 0.81 ± 0.01 nM

## CCOc1cc2ncc(C#N)c(Nc3ccc(F)c(Cl)c3)c2cc1NC(=O)/C=C/CN(C)CCF [compound 13, (E)-4-[(2-Fluoroethyl)methylamino]-but-2-enoic acid [4-(3-chloro-4-fluorophenylamino)-3-cyano-7-ethoxyquinoline-6-yl]amide]
[1]
  EGFR kinase activity IC50, range in words: sub-nanomolar
[1]; [3]
  IC50: 0.8 ± 0.04 nM
[2]
  Cellular EGFR autophosphorylation inhibition, IC50 in words: low nanomolar range
  IC50: 23 ± 12 nM

## CCOc1cc2ncc(C#N)c(Nc3ccc(F)c(Cl)c3)c2cc1NC(=O)/C=C/CNCc1cn(CCF)nn1 [compound 17, (E)-4-{[1-(2-Fluoro-ethyl)-1H-[1,2,3]triazol-4-ylmethyl]-amino}-but-2-enoic acid [4-(3-chloro-4-fluoro-phenylamino)-3-cyano-7-ethoxy-quinolin-6-yl]-amide hydrochloride]
[1]; 17 compared with 18
  EGFR kinase activity relative to quinoline 18: two-fold more active than 18
[1]; [3]
  IC50: 1.81 ± 0.18 nM
[2]
  Cellular EGFR autophosphorylation inhibition, IC50 in words: low nanomolar range
  IC50: 22 ± 9.06 nM

## CCOc1cc2ncc(C#N)c(Nc3ccc(F)c(Cl)c3)c2cc1NC(=O)/C=C/CNC [compound 10, (E)-4-(Methylamino)-but-2-enoic acid [4-(3-chloro-4-fluorophenylamino)-3-cyano-7-ethoxy-quinoline-6-yl]amide]
[1]
  EGFR kinase activity IC50, range in words: sub-nanomolar
[1]; [3]
  IC50: 0.25 ± 0.06 nM
[2]
  Cellular EGFR autophosphorylation inhibition, IC50 in words: low nanomolar range
  IC50: 5.35 ± 1.52 nM

## CNC/C=C/C(=O)Nc1cc2c(Nc3ccc(F)c(Cl)c3)c(C#N)cnc2cc1OCCF.Cl [compound 24, (E)-4-Methylamino-but-2-enoic acid [4-(3-chloro-4-fluorophenylamino)-3-cyano-7-(2-fluoroethoxy)-quinolin-6-yl]-amide hydrochloride]
[1]; [3]
  IC50: 0.29 ± 0.03 nM
[2]
  Cellular EGFR autophosphorylation inhibition, IC50 in words: low nanomolar range
  IC50: 8.12 ± 2.03 nM

## C#CCNC/C=C/C(=O)Nc1cc2c(Nc3ccc(F)c(Cl)c3)c(C#N)cnc2cc1OCC.Cl [compound 25, (E)-4-Prop-2-ynylaminobut-2-enoic acid [4-(3-chloro-4-fluorophenylamino)-3-cyano-7-ethoxy-quinolin-6-yl]-amide hydrochloride]
[1]; read-out: EGFR kinase activity IC50
  IC50: 0.03 nM
[2]
  Cellular EGFR autophosphorylation inhibition, IC50 in words: low nanomolar range
  IC50: 60.2 ± 17.1 nM
